Tests used:
[1] = system: iPSC-derived chondronoids (MCRIi019-A and MCRIi018-B); assay: Chondronoid maturation to hypertrophy with T3; assay type: cell-based, human
Experimental: Triiodothyronine (T3) is crucial for chondrocyte hypertrophy (Aghajanian et al., 2017) thus in some experiments differentiated chondrocytes were treated with 10 nM T3 (Sigma-Aldrich) for 10-21 days to induce chondrocyte hypertrophy. From day 20 (after 2 weeks of FGF2 treatment), differentiation/maturation continued in APEL2/5% PFHM (without FGF2) with medium replaced every 2-3 days. T3 was added when the pellets had consistent and even cartilage histology, which ranged between 4 and 6 weeks post-sclerotome chondrocyte differentiation. In some experiments, pellets were briefly treated with 0.25% trypsin/EDTA for 4 min at 37° C. with agitation to remove the small amount of non-cartilage tissue that occasionally remained on the surface of the chondrocyte pellets. These were allowed to recover in chondrocyte medium (APEL2/5% PFHM) for 1 week before analysis and/or T3 treatment and continued maturation.
(§1) Cultured and in vivo grafted pellet organoids were fixed overnight at 4° C. in Confix (Australian Biostain) neutral-buffered formalin, then […] washed in 70% ethanol, and paraffin-embedded. After fixing, some in vivo grafted pellets were washed in water for 10 minutes then decalcified in 14% EDTA, pH 7.4 at 4° C. for 5 days before embedding. Serial 5 μm sections cut from the pellet centers were mounted on Superfrost Plus slides (Menzel-Gläser) and heated at 55° C. overnight. Sections were treated with xylene to remove the paraffin wax and an ethanol series comprising 100%, 90%, 70%, 50% ethanol then water to rehydrate the sections. Sections were stained with toluidine blue to detect a cartilage proteoglycan matrix or safranin O/fast green for cartilage and bone following standard protocols. Osteogenic pellet sections were also stained with von Kossa to detect mineralization. Images were captured using a Leica DM 2000 LED microscope with Leica Application Suite (LAS) software version 4.9.0 or Zeiss Axio Imager Z2 with Zen 3.1 Blue Edition software.
Formalin fixed and paraffin-embedded sections were immunostained for collagen II (MAB8887; Sigma-Aldrich; 1:150 dilution), collagen I (LF68; Kerafast ENH018-FP; 1:100), collagen X (Cameron et al., 2015) (1:100), PRG4 (clone 9G3; Merck) (1:100) and Ku80 (Cell Signaling) (1:300). For collagen II staining, antigen retrieval used 2 mg/ml porcine pepsin (Sigma) freshly prepared in 1 M Tris/HCl, pH 2.0 for 30 minutes at 37° C., followed by digestion for 30 minutes at 37° C. with 0.2% hyaluronidase (Sigma-Aldrich) in PBS. Collagen X antigen retrieval involved heating to 60° C. in 10 mM Tris/1 mM EDTA/0.05% Tween-20, pH 9.0 (Tris/EDTA) for 30 min, cooling to room temperature for 30 minutes, followed by hyaluronidase digestion and collagen I and Ku80 staining followed antigen retrieval at 60° C. in Tris/EDTA as above. Sections to be stained with Ku80 were then permeabilized with 0.05% Triton X-100. Sections were blocked with 3% BSA in PBS for 1 hour at room temperature, then incubated with primary antibodies in 1% BSA in PBS for 16 hours at 4° C. Appropriate species specific Alexa Fluor 488 and 594 secondary antibodies (ThermoFisher) were diluted 1:200 in 1% BSA in PBS with 2.5 μg/ml DAPI, and sections incubated for 1 hour at room temperature. Slides were washed with PBS and coverslips mounted using Shandon Immumount (ThermoFisher). Images were captured as described above. For collagen X intracellular colocalization studies sections were treated with 0.2% hyaluronidase at 37° C. for 30 minutes then permeabilized with 0.05% Triton X-100. The collagen X antibody was used at 1:100, 58K (PA1-9000; ThermoFisher) at 1:50, GRP94 (PA5-18534; ThermoFisher) 1:200 and LAMP2 (ab25631; Abcam) 1:50. Images were captured on a Zeiss LSM900 Airyscan 2 confocal microscope with Zen 3.1 Blue Edition software. […]

MCRIi001-A-2 organoids = assay: Osteogenic differentiation conditions in a second iPSC line; assay type: cell-based, human; details: 10 nM T3 for 14 days before osteogenic culture; both osteogenic conditions
Experimental: Hypertrophic chondrocytes can transdifferentiate into osteoblasts and osteocytes in vivo (Yang et al., 2014; Zhou et al., 2014). To recapitulate this later stage of endochondral bone formation in vitro, hypertrophic chondrocyte pellets in orbital culture were rinsed in PBS then cultured in DMEM, high glucose, GlutaMAX Supplement, pyruvate (ThermoFisher), 20% FBS (ThermoFisher), 10 mM β-glycerophosphate, 50 μg/ml ascorbic acid 2-phosphate, 50 μg/ml sodium ascorbate, 100 nM dexamethasone (osteogenic differentiation media) for up to three weeks. […] Media was replaced every 2-3 days.
as §1, with “Osteogenic pellet sections were also stained with von Kossa to detect mineralization. Images were captured using a Leica DM 2000 LED microscope with Leica Application Suite (LAS) software version 4.9.0 or Zeiss Axio Imager Z2 with Zen 3.1 Blue Edition software.” left out

[2] = T3 from day 48 to day 69, RNAseq

In the case of `N[C@@H](Cc1cc(I)c(Oc2ccc(O)c(I)c2)c(I)c1)C(=O)O` [T3, Triiodothyronine], the “spontaneous maturation to hypertrophic chondrocytes” value ([1]; T3 from day 48 to day 69) is reported as “enhanced”, the “expression of canonical cartilage genes (COL2A1, COL9A1, COL11A1, SOX9, SOX6, SOX5)” value [1, 2] is reported as “downregulated” and the “expression of late hypertrophic cartilage markers (VEGFA, DMP1, HIF1A, MMP13, ALPL)” value [1, 2] is reported as “enhanced expression”. The “expression of ALPL, FOSL2, VEGFA, BMP7 and DMP1” value ([1]; compared with spontaneous hypertrophy) was “only upregulated after stimulation”, the “chondronoid appearance by histology and immunostaining” value ([1]; day 69) was “appeared similar with and without T3” and the “expression of sentinel cartilage genes (COL11A1, COL9A1, COL9A2, COL9A3, EPYC, MATN1, LUM, COMP, EDIL3)” value ([1]; day 69+T3, core matrisome RNAseq) was “downregulated”. The “von Kossa staining in organoids pre-treated v not pre-treated” value (MCRIi001-A-2 organoids) was “more extensive and more intense von Kossa staining”.

— patent US20250270507A1, “METHODS FOR PRODUCING CARTILAGE AND BONES” (Murdoch Children's Research Institute, priority 2021, published 2025)
